Measured values from ChEMBL document CHEMBL1201862, “PubChem BioAssay data set” (2004).
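Step 1: Grow cells in 96-well plates. Step 2: Expose to compound for 48 hours at 5 concentrations. Step 3: Interpolate endpoints linearly; if unreached, use highest concentration. GI50 = concentration required for 50% inhibition of growth.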 The source made the active and inactive calls. No stated cut-off is given here; in the data, active = GI50 up to about 1.1 µM and inactive = higher.

Assays:
Experiment in all cases: DTP human tumour cell line panel, 48 h
[1] = system: 786-0
[2] = system: A498
[3] = system: A549
[4] = system: ACHN
[5] = system: BT-549
[6] = system: CAKI-1
[7] = system: CCRF-CEM
[8] = system: COLO 205
[9] = system: DU-145
[10] = system: EKVX
[11] = system: HCC 2998
[12] = system: HCT-116
[13] = system: HCT-15
[14] = system: HL-60
[15] = system: HOP-62
[16] = system: HOP-92
[17] = system: HT-29
[18] = system: Hs-578T
[19] = system: IGROV-1
[20] = system: K562
[21] = system: LOX IMVI
[22] = system: M14
[23] = system: MCF7
[24] = system: MDA-MB-231
[25] = system: MDA-MB-435
[26] = system: MDA-N
[27] = system: MOLT-4
[28] = system: NCI-H23
[29] = system: NCI-H460
[30] = system: NCI-H522
[31] = system: NCI/ADR-RES
[32] = system: OVCAR-3
[33] = system: OVCAR-4
[34] = system: OVCAR-5
[35] = system: OVCAR-8
[36] = system: PC-3
[37] = system: RXF 393
[38] = system: SF-268
[39] = system: SF-295
[40] = system: SF-539
[41] = system: SK-MEL-28
[42] = system: SK-MEL-2
[43] = system: SK-MEL-5
[44] = system: SN12C
[45] = system: SNB-19
[46] = system: SR
[47] = system: SW-620
[48] = system: T47D
[49] = system: TK-10
[50] = system: U-251
[51] = system: UACC-257
[52] = system: UACC-62
[53] = system: UO-31
[54] = system: KM12
[55] = system: Malme-3M
[56] = system: NCI-H226
[57] = system: RPMI-8226
[58] = system: SK-OV-3
[59] = system: SNB-75

## N#CCCSC1SC(=C2SC3=C(SCCS3)S2)SC1SCCC#N (configuration not stated)
[1]
  GI50: > 100 µM (inactive)
[2]
  GI50: > 100 µM (inactive)
[3]
  GI50: > 100 µM (inactive)
[4]
  GI50: > 100 µM (inactive)
[5]
  GI50: > 100 µM (inactive)
[6]
  GI50: > 100 µM (inactive)
[7]
  GI50: > 100 µM (inactive)
[8]
  GI50: > 100 µM (inactive)
[9]
  GI50: > 100 µM (inactive)
[10]
  GI50: > 100 µM (inactive)
[11]
  GI50: > 100 µM (inactive)
[12]
  GI50: > 100 µM (inactive)
[13]
  GI50: > 100 µM
[14]
  GI50: > 100 µM (inactive)
[15]
  GI50: > 100 µM (inactive)
[16]
  GI50: > 100 µM (inactive)
[17]
  GI50: > 100 µM (inactive)
[18]
  GI50: > 100 µM (inactive)
[19]
  GI50: > 100 µM (inactive)
[20]
  GI50: > 100 µM (inactive)
[21]
  GI50: > 100 µM (inactive)
[22]
  GI50: > 100 µM (inactive)
[23]
  GI50: > 100 µM (inactive)
[24]
  GI50: > 100 µM (inactive)
[25]
  GI50: > 100 µM (inactive)
[26]
  GI50: > 100 µM (inactive)
[27]
  GI50: > 100 µM (inactive)
[28]
  GI50: > 100 µM (inactive)
[29]
  GI50: > 100 µM (inactive)
[30]
  GI50: > 100 µM (inactive)
[31]
  GI50: > 100 µM (inactive)
[32]
  GI50: > 100 µM (inactive)
[33]
  GI50: > 100 µM (inactive)
[34]
  GI50: > 100 µM (inactive)
[35]
  GI50: > 100 µM (inactive)
[36]
  GI50: > 100 µM (inactive)
[37]
  GI50: > 100 µM (inactive)
[38]
  GI50: > 100 µM (inactive)
[39]
  GI50: > 100 µM (inactive)
[40]
  GI50: > 100 µM (inactive)
[41]
  GI50: > 100 µM (inactive)
[42]
  GI50: > 100 µM (inactive)
[43]
  GI50: > 100 µM (inactive)
[44]
  GI50: > 100 µM (inactive)
[45]
  GI50: > 100 µM (inactive)
[46]
  GI50: > 100 µM (inactive)
[47]
  GI50: > 100 µM (inactive)
[48]
  GI50: > 100 µM (inactive)
[49]
  GI50: > 100 µM (inactive)
[50]
  GI50: > 100 µM (inactive)
[51]
  GI50: > 100 µM (inactive)
[52]
  GI50: > 100 µM (inactive)
[53]
  GI50: > 100 µM (inactive)

## CO/N=C(\C)c1cccc(Nc2nc3ccccc3c3occc23)c1
[1]
  GI50: 13.8 µM (inactive)
[2]
  GI50: 3.61 µM (inactive)
[3]
  GI50: 13.1 µM (inactive)
[4]
  GI50: 14 µM (inactive)
[5]
  GI50: 13.5 µM (inactive)
[6]
  GI50: 10.8 µM (inactive)
[7]
  GI50: 12.5 µM (inactive)
[8]
  GI50: 12.1 µM (inactive)
[9]
  GI50: 15.8 µM (inactive)
[10]
  GI50: 13.6 µM (inactive)
[11]
  GI50: 15.1 µM (inactive)
[12]
  GI50: 11.6 µM (inactive)
[13]
  GI50: 10.4 µM
[14]
  GI50: 27.7 µM (inactive)
[15]
  GI50: 15.4 µM (inactive)
[16]
  GI50: 6.3 µM (inactive)
[17]
  GI50: 5.19 µM (inactive)
[18]
  GI50: 10.9 µM (inactive)
[20]
  GI50: 16.4 µM (inactive)
[54]
  GI50: 7.59 µM (inactive)
[21]
  GI50: 15.2 µM (inactive)
[22]
  GI50: 16.7 µM (inactive)
[23]
  GI50: 18.1 µM (inactive)
[24]
  GI50: 10.4 µM (inactive)
[25]
  GI50: 12.2 µM (inactive)
[26]
  GI50: 14.1 µM (inactive)
[27]
  GI50: 11.2 µM (inactive)
[55]
  GI50: 15.7 µM (inactive)
[56]
  GI50: 1.56 µM (inactive)
[29]
  GI50: 11.8 µM (inactive)
[31]
  GI50: 14.4 µM (inactive)
[32]
  GI50: 16.3 µM (inactive)
[33]
  GI50: 14.8 µM (inactive)
[34]
  GI50: 13.8 µM (inactive)
[35]
  GI50: 17.1 µM (inactive)
[36]
  GI50: 14.5 µM (inactive)
[57]
  GI50: 12.9 µM (inactive)
[37]
  GI50: 12.4 µM (inactive)
[38]
  GI50: 15.4 µM (inactive)
[39]
  GI50: 13 µM (inactive)
[40]
  GI50: 13.6 µM (inactive)
[41]
  GI50: 14.3 µM (inactive)
[43]
  GI50: 14.8 µM (inactive)
[58]
  GI50: 14.1 µM (inactive)
[44]
  GI50: 13.3 µM (inactive)
[45]
  GI50: 15.7 µM (inactive)
[59]
  GI50: 15.3 µM (inactive)
[46]
  GI50: 11.9 µM (inactive)
[48]
  GI50: 11.1 µM (inactive)
[49]
  GI50: 12.7 µM (inactive)
[50]
  GI50: 15.9 µM (inactive)
[51]
  GI50: 0.0419 µM (active)
[52]
  GI50: < 0.01 µM (active)
[53]
  GI50: < 0.01 µM (active)
